Laboratory results as given in patent US7125883B1, “Integrin receptor ligands” (Abbott GmbH & Co. KG, priority 1999, dated 2006).

Biological target: integrin αvβ3 (Homo sapiens, UniProt P05106+P06756)
Experiment: Integrin αvβ3 assay (competition with vitronectin for binding to solid-phase integrin αvβ3)
Settings: competition between human vitronectin and test substance for binding to integrin αvβ3 bound to a solid phase; only a ranking in words is given

| Structure (SMILES) | IC50 values (concentration of the ligand at which 50% of the ligand is displaced) |
| --- | --- |
| Cc1cn(CC(CC(=O)O)NC(=O)OCc2ccccc2)c(=O)nc1NCc1ccc(CNc2ccccn2)cc1.O=C(O)C(F)(F)F (stereo not shown) [Example I-54] | best result |
| O=C(O)C(F)(F)F.O=C(O)CC(Cn1cc(C2CCOCC2)c(NCCC(=O)Nc2ncc[nH]2)nc1=O)NC(=O)OCc1ccccc1 (stereo not shown) [Example I-61, 2-[(3-{[1-(2-{[(Benzyloxy)carbonyl]amino}-3-carboxy-propyl)-2-oxo-5-tetrahydro-2H-pyran-4-yl-1,2-dihydropyrimidin-4-yl]amino}propanoyl)amino]-1H-imidazol-1-ium trifluoroacetate] | best result |
| O=C(O)C(F)(F)F.O=C(O)CC(Cn1cc(-c2ccccc2)c(NCCC(=O)Nc2ncc[nH]2)nc1=O)NC(=O)OCc1ccccc1 (stereo not shown) [Example I-63, 2-[(3-{[1-(2-{[(Benzyloxy)carbonyl]amino}-3-carboxy-propyl)-2-oxo-5-phenyl-1,2-dihydropyrimidin-4-yl]amino}-propanoyl)amino]-1H-imidazol-1-ium trifluoroacetate] | best result |
| CCCc1cn(C[C@H](NC(=O)OCc2ccccc2)C(=O)O)c(=O)nc1N1CCC(CNc2ccccn2)CC1.O=C(O)C(F)(F)F [Example I-64, 2-[({1-[1-((2S)-{[(Benzyloxy)carbonyl]amino}-2-carboxy-ethyl)-2-oxo-5-propyl-1,2-dihydropyrimidin-4-yl]-piperidin-4-yl}methyl)amino]pyridinium trifluoroacetate] | best result |
